According to US20240150362A1, “Substituted Pyrrolotriazines” (Molecure S.A., priority 2022, published 2024):
Counter-ions that a name gives are not always drawn.

target: T1, full-length USP7 (Homo sapiens, UniProt Q93009); test: Enzymatic assay to determine % inhibition of USP7 activity at 1 μM test compound (Ubiquitin-Rhodamine 110 cleavage); type: biochemical; conditions: 1 μM of the test compound; given where IC50 has not been determined yet; mean of two repetitions
T1 construct: A 45 μl reaction volume containing full-length USP7 (0.5-1.0 nM)
T1 sequence (Q93009 whole entry): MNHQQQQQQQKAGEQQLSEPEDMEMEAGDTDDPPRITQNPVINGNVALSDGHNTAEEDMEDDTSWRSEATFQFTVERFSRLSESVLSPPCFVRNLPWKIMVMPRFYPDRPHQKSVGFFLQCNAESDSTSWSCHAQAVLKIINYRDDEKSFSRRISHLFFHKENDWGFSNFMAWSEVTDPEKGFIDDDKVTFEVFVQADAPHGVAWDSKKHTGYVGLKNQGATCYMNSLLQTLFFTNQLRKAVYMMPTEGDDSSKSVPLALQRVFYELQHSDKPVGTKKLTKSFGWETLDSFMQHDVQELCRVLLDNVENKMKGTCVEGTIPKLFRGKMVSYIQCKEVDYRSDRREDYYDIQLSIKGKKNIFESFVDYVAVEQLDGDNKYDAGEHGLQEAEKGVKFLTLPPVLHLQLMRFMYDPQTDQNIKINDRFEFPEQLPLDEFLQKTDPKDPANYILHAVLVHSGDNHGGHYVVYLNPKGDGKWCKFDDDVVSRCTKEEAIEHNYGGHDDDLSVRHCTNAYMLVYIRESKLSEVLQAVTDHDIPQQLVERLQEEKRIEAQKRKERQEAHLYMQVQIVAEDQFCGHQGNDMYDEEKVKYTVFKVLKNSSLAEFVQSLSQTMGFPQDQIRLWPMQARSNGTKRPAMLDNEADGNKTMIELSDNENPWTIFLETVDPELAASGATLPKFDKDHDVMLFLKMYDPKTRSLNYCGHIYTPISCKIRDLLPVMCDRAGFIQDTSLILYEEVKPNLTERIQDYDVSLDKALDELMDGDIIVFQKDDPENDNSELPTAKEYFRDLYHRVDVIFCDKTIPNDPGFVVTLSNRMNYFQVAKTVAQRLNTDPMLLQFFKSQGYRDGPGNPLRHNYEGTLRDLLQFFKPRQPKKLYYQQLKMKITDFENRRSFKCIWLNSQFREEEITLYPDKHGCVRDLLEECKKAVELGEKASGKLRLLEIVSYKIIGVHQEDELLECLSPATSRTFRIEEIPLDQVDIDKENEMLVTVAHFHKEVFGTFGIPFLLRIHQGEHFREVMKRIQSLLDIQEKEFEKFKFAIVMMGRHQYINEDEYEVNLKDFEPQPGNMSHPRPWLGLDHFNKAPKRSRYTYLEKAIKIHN
Description: Enzymatic Assay to Determine % Value of Inhibition […] Activity at 1 μM […]
A 45 μl reaction volume containing full-length USP7 (0.5-1.0 nM) in 50 mM HEPES pH 7.5, 150 mM NaCl, 2 mM DTT, 1 mg/ml BSA and 0.05% Tween20 (DUB assay buffer) was assembled in wells of 96 well half area black flat bottom plates. All test compounds were first dissolved to 30 mM stocks in DMSO and subsequently introduced to enzyme 15 min after USP7 incubation with DTT at room temperature. The final concentration of tested compounds was 1 μM. The enzymatic reaction was started by adding 0.5 μM Ubiquitin-Rhodamine 110 (final concentration) and allowed to proceed for 30-60 min at 25° C., 250 RPM shaking before Rhodamine fluorescence (485 nm excitation/535 nm emission) was measured using Tecan Spark M10 plate reader. Percentage of inhibition at 1 μM was determined by the mean of two repetitions for these concentrations using Microsoft Excel software.

| Compound | inhibition at 1 µM |
| --- | --- |
| Cc1cc(Cl)cc(-c2ncnn3cc(CN4C(=O)C5C(C4=O)C5(C)C)cc23)c1NCC1CCNCC1 (stereo not drawn) [Example 73, 3-((4-(5-chloro-3-methyl-2-((piperidin-4-ylmethyl)amino)phenyl)pyrrolo[2,1-f][1,2,4]triazin-6-yl)methyl)-6,6-dimethyl-3-azabicyclo[3.1.0]hexane-2,4-dione dihydrochloride] | > 70% |
| CC1(C)C2C(=O)N(Cc3cc4c(-c5cc(Cl)cc6c5N(C5CCNC5)CC5CC65)ncnn4c3)C(=O)C21 (stereo not drawn) [Example 92, 3-((4-(6-chloro-3-(pyrrolidin-3-yl)-1a,2,3,7b-tetrahydro-1H-cyclopropa[c]quinolin-4-yl)pyrrolo[2,1-f][1,2,4]triazin-6-yl)methyl)-6,6-dimethyl-3-azabicyclo[3.1.0]hexane-2,4-dione hydrochloride] | 50 to 70% |
| Cc1cc(Cl)cc(-c2ncnn3cc(CN4C(=O)C5C(C4=O)C5(C)C)cc23)c1CC1CN[C@H](C)CO1 (stereo partly drawn) [Example 40, 3-((4-(5-chloro-3-methyl-2-(((5R)-5-methylmorpholin-2-yl)methyl)phenyl)pyrrolo[2,1-f][1,2,4]triazin-6-yl)methyl)-6,6-dimethyl-3-azabicyclo[3.1.0]hexane-2,4-dione hydrochloride] | 50 to 70% |
| Cc1cc(Cl)cc(-c2ncnn3cc(CN4C(=O)C5C(C4=O)C5(C)C)cc23)c1CC1CNC2(CC2)CO1 (stereo not drawn) [Example 71, 3-((4-(2-((7-oxa-4-azaspiro[2.5]octan-6-yl)methyl)-5-chloro-3-methylphenyl)pyrrolo[2,1-f][1,2,4]triazin-6-yl)methyl)-6,6-dimethyl-3-azabicyclo[3.1.0]hexane-2,4-dione 2,2,2-trifluoroacetate] | 20 to 49% |
| Cc1cc(Cl)cc(-c2ncnn3cc(CN4C(=O)C5C(C4=O)C5(C)C)cc23)c1NCC1CCCNC1 (stereo not drawn) [Example 79, 3-((4-(5-chloro-3-methyl-2-((piperidin-3-ylmethyl)amino)phenyl)pyrrolo[2,1-f][1,2,4]triazin-6-yl)methyl)-6,6-dimethyl-3-azabicyclo[3.1.0]hexane-2,4-dione dihydrochloride] | 50 to 70% |
| O=c1cc[nH]c(=O)n1Cc1cc2c(-c3cc(Cl)cc4ccn(CC5(F)CCNCC5)c34)nc(Cl)nn2c1 [Example 123, 3-((2-chloro-4-(5-chloro-1-((4-fluoropiperidin-4-yl)methyl)-1H-indol-7-yl)pyrrolo[2,1-f][1,2,4]triazin-6-yl)methyl)pyrimidine-2,4(1H,3H)-dione hydrochloride] | < 20% |
| Cc1cc(Cl)cc(-c2ncnn3cc(CN4C(=O)C5C(C4=O)C5(C)C)cc23)c1O[C@@H]1CC[C@@H](C)NC1 (stereo partly drawn) [Example 3, 3-((4-(5-chloro-3-methyl-2-(((3R,6R)-6-methylpiperidin-3-yl)oxy)phenyl)pyrrolo[2,1-f][1,2,4]triazin-6-yl)methyl)-6,6-dimethyl-3-azabicyclo[3.1.0]hexane-2,4-dione hydrochloride] | 20 to 49% |
| Cc1cc(Cl)cc(-c2ncnn3cc(C(=O)O)cc23)c1O[C@H]1CCCNC1 [Example 16, (S)-4-(5-chloro-3-methyl-2-(piperidin-3-yloxy)phenyl)pyrrolo[2,1-f][1,2,4]triazine-6-carboxylic acid hydrochloride] | < 20% |
| Cc1cc(Cl)cc(-c2ncnn3cc(Cn4c(=O)ccn(C)c4=O)cc23)c1C1=CCNCC1 [Example 88, 3-((4-(5-chloro-3-methyl-2-(1,2,3,6-tetrahydropyridin-4-yl)phenyl)pyrrolo[2,1-f][1,2,4]triazin-6-yl)methyl)-1-methylpyrimidine-2,4(1H,3H)-dione hydrochloride] | < 20% |
| Cc1cc(Cl)cc(-c2ncnn3cc(Cn4c(=O)ccn(CC(=O)O)c4=O)cc23)c1C[C@@H]1CNCCO1 (single isomer, unassigned) [Example 125, hydrochloride] | 20 to 49% |
| Cc1cc(Cl)cc(-c2ncnn3cc(CN4C(=O)C5C(C4=O)C5(C)C)cc23)c1OCC1(C)CCCNC1 (single isomer, unassigned) [Example 74, 3-((4-(5-chloro-3-methyl-2-((3-methylpiperidin-3-yl)methoxy)phenyl)pyrrolo[2,1-f][1,2,4]triazin-6-yl)methyl)-6,6-dimethyl-3-azabicyclo[3.1.0]hexane-2,4-dione hydrochloride] | 50 to 70% |
| Cc1cc(F)cc(-c2ncnn3cc(Cn4c(=O)ccn(C)c4=O)cc23)c1CC1CNC[C@H](C)O1 (stereo partly drawn) [Example 128, 3-((4-(5-fluoro-3-methyl-2-(((6S)-6-methylmorpholin-2-yl)methyl)phenyl)pyrrolo[2,1-f][1,2,4]triazin-6-yl)methyl)-1-methylpyrimidine-2,4(1H,3H)-dione hydrochloride] | 20 to 49% |
| Cc1cc(Cl)cc(-c2ncnn3cc(CN4C(=O)C5C(C4=O)C5(C)C)cc23)c1CC1(C)CNCC(C)(C)O1 (stereo not drawn) [Example 72, 3-((4-(5-chloro-3-methyl-2-((2,6,6-trimethylmorpholin-2-yl)methyl)phenyl)pyrrolo[2,1-f][1,2,4]triazin-6-yl)methyl)-6,6-dimethyl-3-azabicyclo[3.1.0]hexane-2,4-dione hydrochloride] | > 70% |
| Cc1cc(Cl)cc(-c2ncnn3cc(CN4C(=O)C5C(C4=O)C5(C)C)cc23)c1OCCN (stereo not drawn) [Example 9, 3-((4-(2-(2-aminoethoxy)-5-chloro-3-methylphenyl)pyrrolo[2,1-f][1,2,4]triazin-6-yl)methyl)-6,6-dimethyl-3-azabicyclo[3.1.0]hexane-2,4-dione hydrochloride] | 50 to 70% |
| Cc1cc(Cl)cc(-c2ncnn3cc(CN4C(=O)C5C(C4=O)C5(C)C)cc23)c1CC1CNCC(CF)O1 (single isomer, unassigned) [Example 43, 3-((4-(5-chloro-2-((6-(fluoromethyl)morpholin-2-yl)methyl)-3-methylphenyl)pyrrolo[2,1-f][1,2,4]triazin-6-yl)methyl)-6,6-dimethyl-3-azabicyclo[3.1.0]hexane-2,4-dione hydrochloride] | 20 to 49% |
| C[C@H]1CNCC(Cc2c(F)cc(Cl)cc2-c2ncnn3cc(Cn4c(=O)ccn(C)c4=O)cc23)O1 (single isomer, unassigned) [Example 120, hydrochloride] | > 70% |
| Cc1cc(Cl)cc(-c2ncnn3cc(C(N)=O)cc23)c1O[C@H]1CCCNC1 [Example 18, (S)-4-(5-chloro-3-methyl-2-(piperidin-3-yloxy)phenyl)pyrrolo[2,1-f][1,2,4]triazine-6-carboxamide hydrochloride] | < 20% |

Next, values leading:

| inhibition at 1 µM | Compound |
| --- | --- |
| < 20% | CC1(C)C2C(=O)N(Cc3cc4c(-c5cc(C(=O)O)cc6ccn(C[C@@H]7CNCCO7)c56)ncnn4c3)C(=O)C21 (stereo partly drawn) [Example 47, 7-(6-((6,6-dimethyl-2,4-dioxo-3-azabicyclo[3.1.0]hexan-3-yl)methyl)pyrrolo[2,1-f][1,2,4]triazin-4-yl)-1-(((S)-morpholin-2-yl)methyl)-1H-indole-5-carboxylic acid hydrochloride] |
| < 20% | COC(=O)c1cc(-c2ncnn3cc(CN4C(=O)C5C(C4=O)C5(C)C)cc23)c2c(ccn2C[C@@H]2CNCCO2)c1 (stereo partly drawn) [Example 34, methyl 7-(6-((6,6-dimethyl-2,4-dioxo-3-azabicyclo[3.1.0]hexan-3-yl)methyl)pyrrolo[2,1-f][1,2,4]triazin-4-yl)-1-(((S)-morpholin-2-yl)methyl)-1H-indole-5-carboxylate 2,2,2-trifluoroacetate] |
| > 70% | CC1(C)C2C(=O)N(Cc3cc4c(-c5cc(F)cc6ccn(C[C@@H]7CNCCO7)c56)ncnn4c3)C(=O)C21 (stereo partly drawn) [Example 33, 3-((4-(5-fluoro-1-(((S)-morpholin-2-yl)methyl)-1H-indol-7-yl)pyrrolo[2,1-f][1,2,4]triazin-6-yl)methyl)-6,6-dimethyl-3-azabicyclo[3.1.0]hexane-2,4-dione 2,2,2-trifluoroacetate] |
| 20 to 49% | CC1(C)C2C(=O)N(Cc3cc4c(-c5cc(Cl)cc6c5N(C[C@@H]5CNCCO5)CCC6)ncnn4c3)C(=O)C21 (stereo partly drawn) [Example 65, 3-((4-(6-chloro-1-(((S)-morpholin-2-yl)methyl)-1,2,3,4-tetrahydroquinolin-8-yl)pyrrolo[2,1-f][1,2,4]triazin-6-yl)methyl)-6,6-dimethyl-3-azabicyclo[3.1.0]hexane-2,4-dione hydrochloride] |
| 50 to 70% | CC1(C)NC(=O)N(Cc2cc3c(-c4cc(Cl)cc5ccn(C[C@@H]6CNCCO6)c45)ncnn3c2)C1=O [Example 36, (S)-3-((4-(5-chloro-1-(morpholin-2-ylmethyl)-1H-indol-7-yl)pyrrolo[2,1-f][1,2,4]triazin-6-yl)methyl)-5,5-dimethylimidazolidine-2,4-dione hydrochloride] |

same assay, conditions: 1 μM of the test compound; given where IC50 has not been determined yet; mean of two repetitions; hydrochloride, 1 µM

| USP7 % inhibition | Compound |
| --- | --- |
| B* (B*: 50-70% inhibition) | Cc1cc(Cl)cc(-c2ncnn3cc(CN4C(=O)C5C(C4=O)C5(C)C)cc23)c1OC(C)[C@@H]1CNCCO1.Cl (single isomer, unassigned) [Example 76] |
| D* (D*: <20% inhibition) | Cc1cc(Cl)cc(-c2ncnn3cc(CN4C(=O)C5C(C4=O)C5(C)C)cc23)c1OC(C)[C@@H]1CNCCO1.Cl (single isomer, unassigned) [Example 77] |
